No end group written: not given here. *: point of attachment. Octanoyl = CCCCCCCC(=O)*
Key:
[1] = test system: tyrosine hydroxylase (TH) mRNA; test: TH mRNA expression in the midbrain (real-time PCR); assay type: in vivo; conditions: three hours after ghrelin injection (10 nmols), wild-type mice; saline 1.03±0.15
Description: Real-time PCR: RNA was extracted from the midbrain of 8 ghrelin-treated mice or 8 saline-treated mice using TRIzol® (Invitrogen, Carlsbad, Calif.) according to the manufacturer's instructions. cDNA was synthesized using the First-Strand cDNA synthesis kit (Amersham Biosciences), using a total of 3 μg of total RNA in 15 μl of total volume. Real-time PCR analysis of TH mRNA (SEQ ID NO. 4: 5′ […] 3′; SEQ ID NO. 5: 5′ […] 3′) was performed using iQ SYBR green supermix (Bio-Rad) and […] of each primer. Primers for 18S were used as controls. Measurements were performed on an iCycler (Bio-Rad).
Tyrosine hydroxylase (TH) is the rate limiting enzyme of dopamine biosynthesis. An experiment was performed to examine whether ghrelin alters TH mRNA expression in the midbrain.

striatal dopamine [2] = test: Striatal dopamine after MPTP (HPLC); assay type: in vivo, mice; conditions: ghrelin 14 days
Description: (§1) Control animals were given saline. Animals were sacrificed and perfused 7 days later and processed for immunohistochemistry or HPLC for dopamine (DA) and metabolites. n=8-10 for ghrelin wt and ko mice; n=6 for GHSR wt/wt, homo/wt and homo/TG.
(§2) The samples were subsequently thawed in 0.4 ml of chilled 0.1 M perchloric acid and sonicated. Aliquots were taken for protein quantification using a spectrophotometric assay. Other aliquots were centrifuged, and DA levels were measured in supernatants by high pressure liquid chromatography (HPLC) with electrochemical detection. Concentrations of DA and metabolites were expressed as ng/mg protein (mean±SEM).
(§3) The observation that ghrelin promotes SNpc DA neuronal function, mitochondrial respiration and number raises the possibility that ghrelin may protect nigrostriatal dopaminergic system during increased cellular stress. […] In brief, mice were treated with daily IP injections of exogenous ghrelin (10 nmols) or saline for 14 days. Mice were injected immediately before the dark phase, and food was removed overnight since calorie intake and postprandial increases in glucose and insulin can suppress the action of ghrelin (Cummings et al., 2006, Physiol Behav 89: 71-84). Both ghrelin and saline treated mice were given 3 grams of standard chow the following morning at 9 am. […] After the subsequent 7 days of treatment (saline or ghrelin), TH immunoreactive neurons were counted blind by two independent researchers using the non-biased optical fractionator on the stereology program, Stereoinvestigator.

[3] = test system: SNpc DA neurons mitochondria; test: Mitochondria number in SNpc DA perikarya (electron microscopy); assay type: in vivo, mice
Excerpt: Mitochondria number: Animals were perfused and their brains were processed for TH immunolabeling for electron microscopic examination. Ultrathin sections were cut on a Leica ultra microtome, collected on Formvar-coated single-slot grids and analyzed with a Tecnai 12 Biotwin (FEI Company) electron microscope. Mitochondria were counted blindly from randomly selected sections, and Scion Image was used to normalize cytoplasmic area so that mitochondrial number per cell is expressed in square micrometers.
Given that ghrelin induces mitochondrial respiration as described above, an experiment was performed to test whether ghrelin could also alter mitochondrial number in the SNpc DA perikarya. […]
Therefore, an experiment was performed to test whether ghrelin increases mitochondrial number in the SNpc dopamine neurons. […] In line with this, UCP2 ko mice show reduced mitochondrial number in the SNpc dopamine neurons, which predisposes them to environmental toxins (Andrews et al., 2005, J Neurosci 25:184-191). Furthermore, mitochondrial dysfunction lies at the very heart of Parkinson's disease (Lin et al., 2006, Nature 443:787-795).

TH neurons in the SNpc = test: MPTP-induced TH cell loss in the SNpc (stereology, optical fractionator); assay type: in vivo, mice
Excerpt: as §1
TH cell quantification: Free floating sections were stained with TH (1:5000, Chemicon International) and visualized with DAB using standard procedures.
Unbiased stereology methods were used to quantify TH immunoreactive cells in the SNpc. Cells were visualized by a Zeiss microscope and relayed via a MicroFibre digital camera (www(dot)optronics(dot)com) to a computer where they were counted using the optical fractionator with the sophisticated Stereolnvestigator software (MicroBrightField, Williston, Vt., USA). Every fourth section was collected through the SNpc, and TH cells were counted in grids randomly positioned by the software in the outlined counting area through all optical planes, thus creating a 3 dimensional counting area.
as §3

striatal dopamine [4] = test: Striatal DA concentration after ghrelin injection (HPLC); assay type: in vivo, mice
Description: as §2
To further examine the effect of ghrelin on the nigrostriatal system, striatal DA concentration after ghrelin injection in wild-type mice was measured using HPLC.

ghrelin (GSS(Octanoyl)FLSPEHQRVQQRKESKKPPAKLQPR; listed as Homo sapiens) [28 amino acid acyl-peptide esterified with octanoic acid on Ser3; endogenous ligand of GHSR]
TH mRNA expression in the midbrain [1]: 2.86±0.46 | Loss of striatal dopamine vs controls, ghr/MPTP (striatal dopamine [2]; MPTP on day 7): 45% | Striatal dopamine concentration, ghr/MPTP (striatal dopamine [2]; MPTP on day 7): 78.4±8.8 ng/mg protein | Striatal dopamine concentration, ghr/sal (striatal dopamine [2]; saline on day 7, sal/sal 147.4±10.2): 141.8±7.5 ng/mg protein | Mitochondrial number in DA perikarya of the SNpc ([3]; mice, three hours after ghrelin injection, saline 0.46±0.03): 0.62±0.03 μm^2 | Mitochondrial number in SNpc dopamine neurons, UCP2 ko mice ([3]; two hours after ghrelin injection, saline 0.45±0.03): 0.39±0.03 μm^2 | Mitochondrial number in SNpc dopamine neurons, UCP2 wt mice ([3]; two hours after ghrelin injection, saline 0.46±0.03): 0.62±0.03 μm^2 | Total TH neurons in SNpc, ghr/MPTP (TH neurons in the SNpc; ghrelin 10 nmols IP daily 14 days, MPTP 30 mg/kg IP on day 7): 7836±285 | Total TH neurons in SNpc, ghr/sal (TH neurons in the SNpc; ghrelin 10 nmols IP daily 14 days, saline on day 7, sal/sal 11283±342): 11616±318 | Dopamine cell loss compared to control mice, ghrelin treatment (TH neurons in the SNpc; ghrelin 14 days, MPTP on day 7): 33% | SNpc volume, ghr/MPTP (TH neurons in the SNpc; ghrelin 14 days, MPTP on day 7): not significantly different | SNpc volume, ghr/sal vs sal/sal (TH neurons in the SNpc; ghrelin 14 days, saline on day 7): not significantly different | Effect on DA concentration in ghsr−/− mice (striatal dopamine [4]; ghsr−/− mice): no effect | DA concentration in ventral striata (striatal dopamine [4]; wild-type mice after ghrelin injection): 126.5±7.26 ng/mg protein | DA concentration in dorsal striatum (striatal dopamine [4]; wild-type mice after ghrelin injection, saline 119.4±9.6): 153±4.6 ng/mg protein

— patent US20100216706A1, “Ghrelin Protects Substantia Nigra Dopamine Neurons” (priority 2007, published 2010)
